For assay [1], the system named is TGF-β signaling (TGF-β pSMAD, MPC-11). Nature of the assay: AlphaScreen SureFire SMAD3 (p-Ser423/425) assay, inhibition of TGF-β signaling. The format is cell-based. To be noted: Mus musculus, p-SMAD-3 (Ser423/425) in cell lysate after TGF-β stimulation. The essentials:
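Phosphorylation of endogenous SMAD-3 at Ser423/425 was quantified with an AlphaScreen SureFire assay. Cells were exposed to compound for about 10 minutes, stimulated with TGF-β, and lysed in 1× Lysis Buffer. Lysate (5 μL) was combined with Reaction/Activation buffer plus Acceptor beads for 2 hours, then Donor beads for 1½ hours, and read on a plate reader.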

The test system of assay [2] is GDF8 signaling (GDF pSMAD, MPC11). Nature of the assay: AlphaScreen SureFire SMAD3 (p-Ser423/425) assay, inhibition of GDF8 signaling. In kind it is cell-based. Particulars: Mus musculus, MPC-11, p-SMAD-3 (Ser423/425) in cell lysate after GDF8 stimulation.

Broadly, the IC50 is the concentration that inhibits the measured activity by half. On to `Fc1ccc(-c2nn3c(c2-c2ccc4nccnc4c2)CCC3)c(F)c1F` [Compound 132, 6-(2-(2,3,4-Trifluorophenyl)-5,6-dihydro-4H-pyrrolo[1,2-b]pyrazol-3-yl)quinoxaline], for which the IC50 in assay [1] came out at 2340 nM; in assay [2], 910 nM.
On the same counts, the results for `Fc1ccc(F)c(-c2nn3c(c2-c2ccc4ncccc4c2)CCC3)c1` [Compound 196, 6-(2-(2,5-Difluorophenyl)-5,6-dihydro-4H-pyrrolo[1,2-b]pyrazol-3-yl)quinoline] are 5260 nM and 862 nM.
For `Clc1cccc(-c2nn3c(c2-c2ccc4nccn4c2)CCC3)c1` [Compound 25, 6-(2-(3-Chlorophenyl)-5,6-dihydro-4H-pyrrolo[1,2-b]pyrazol-3-yl)imidazo[1,2-a]pyridine], in that order: 140 nM and 69.5 nM.
For `FC(F)(F)c1cccc(-c2nn3c(c2-c2ccc4nccnc4c2)CCC3)c1` [Compound 58, 6-(2-(3-Trifluoromethylphenyl)-5,6-dihydro-4H-pyrrolo[1,2-b]pyrazol-3-yl)quinoxaline], in that order: 863 nM and 309 nM.
Turning to `Fc1cccc(-c2nn3c(c2-c2ccc4cn[nH]c4c2)CCC3)c1` [Compound 78, 6-(2-(3-Fluorophenyl)-5,6-dihydro-4H-pyrrolo[1,2-b]pyrazol-3-yl)-1H-indazole], the IC50 in assay [1] worked out at 2300 nM; in assay [2] it was 812 nM.
On the same counts, the results for `Cc1c(F)ccc(-c2nn3c(c2-c2ccc4nccn4c2)CCC3)c1F` [Compound 169, 6-(2-(2,4-Difluoro-3-methylphenyl)-5,6-dihydro-4H-pyrrolo[1,2-b]pyrazol-3-yl)imidazo[1,2-a]pyridine] are 464 nM and 178 nM.
On to `Fc1c(Cl)cccc1-c1nn2c(c1-c1ccc3ncsc3c1)CCC2` [Compound 140, 6-(2-(3-Chloro-2-fluorophenyl)-5,6-dihydro-4H-pyrrolo[1,2-b]pyrazol-3-yl)benzo[d]thiazole], for which the values for the half-inhibitory concentration (IC50) in assay [1] and in assay [2] were 842 nM and 504 nM, respectively.
For `COc1ccc(-c2nn3c(c2-c2ccc4ncsc4c2)CCC3)cc1` [Compound 100, 6-(2-(4-Methoxyphenyl)-5,6-dihydro-4H-pyrrolo[1,2-b]pyrazol-3-yl)benzo[d]thiazole], in that order: 3740 nM and 699 nM.
For `Cc1cccc(-c2nn3c(c2-c2ccc4nccn4c2)CCC3)c1` [Compound 18, 6-(2-(m-Tolyl)-5,6-dihydro-4H-pyrrolo[1,2-b]pyrazol-3-yl)imidazo[1,2-a]pyridine], in that order: 369 nM and 65 nM.
On the same counts, the results for `Cc1cccc(-c2nn3c(c2-c2ccc4nccnc4c2)CCC3)c1` [Compound 54, 6-(2-(m-Tolyl)-5,6-dihydro-4H-pyrrolo[1,2-b]pyrazol-3-yl)quinoxaline] are 204 nM and 60.2 nM.
For `COc1c(F)ccc(-c2nn3c(c2-c2ccc4ncsc4c2)CCC3)c1F` [Compound 162, 6-(2-(2,4-Difluoro-3-methoxyphenyl)-5,6-dihydro-4H-pyrrolo[1,2-b]pyrazol-3-yl)benzo[d]thiazole], the IC50 was determined as 2220 nM in assay [1] and 555 nM in assay [2].
Regarding `Fc1ccccc1-c1nn2c(c1-c1ccc3cn[nH]c3c1)CCC2` [Compound 134, 6-(2-(2-Fluorophenyl)-5,6-dihydro-4H-pyrrolo[1,2-b]pyrazol-3-yl)-1H-indazole], the IC50 in assay [1] came to 6060 nM; in assay [2], 901 nM.
As for `Fc1ccc(Cl)cc1-c1nn2c(c1-c1ccc3ncsc3c1)CCC2` [Compound 175, 6-(2-(5-Chloro-2-fluorophenyl)-5,6-dihydro-4H-pyrrolo[1,2-b]pyrazol-3-yl)benzo[d]thiazole], the figures for the half-inhibitory concentration (IC50) in assay [1] and in assay [2] were 41.9 nM and 28.3 nM, respectively.
On the same counts, the results for `Cc1cccc(-c2nn3c(c2-c2ccc4c(cnn4C)c2)CCC3)c1` [Compound 10, 1-Methyl-5-(2-(m-tolyl)-5,6-dihydro-4H-pyrrolo[1,2-b]pyrazol-3-yl)-1H-indazole] are 2590 nM and 643 nM.
On the same counts, the results for `Fc1cc(F)c(-c2nn3c(c2-c2ccc4ncnn4c2)CCC3)cc1F` [Compound 119, 6-(2-(2,4,5-Trifluorophenyl)-5,6-dihydro-4H-pyrrolo[1,2-b]pyrazol-3-yl)-[1,2,4]triazolo[1,5-a]pyridine] are 141 nM and 30.9 nM.
For the compound `Cc1cccc(-c2nn3c(c2-c2ccc4nccn4c2)OCC3)c1` [Compound 44, 7-(imidazo[1,2-a]pyridin-6-yl)-6-(m-tolyl)-2,3-dihydropyrazolo[5,1-b]oxazole], the figures for the half-inhibitory concentration (IC50) in assay [1] and in assay [2] were 106 nM and 23.3 nM, respectively.
As for `Cc1cc(-c2nn3c(c2-c2ccc4nccn4c2)CCC3)c(F)cc1F` [Compound 181, 6-(2-(2,4-Difluoro-5-methylphenyl)-5,6-dihydro-4H-pyrrolo[1,2-b]pyrazol-3-yl)imidazo[1,2-a]pyridine], the figures for the IC50 in assay [1] and in assay [2] were 380 nM and 204 nM, respectively.
With `Fc1ccc(-c2nn3c(c2-c2ccc4[nH]ncc4c2)CCC3)cc1F` [Compound 83, 5-(2-(3,4-Difluorophenyl)-5,6-dihydro-4H-pyrrolo[1,2-b]pyrazol-3-yl)-1H-indazole], the IC50 in assay [1] came out at 517 nM; in assay [2] it was 70.4 nM.
For `Cc1cccc(-c2nn3c(c2-c2ccc4ncn(C)c4c2)OCC3)c1` [Compound 38, 7-(1-Methyl-1H-benzo[d]imidazol-6-yl)-6-(m-tolyl)-2,3-dihydropyrazolo[5,1-b]oxazole], in that order: 57.9 nM and 22.6 nM.
For the compound `FC(F)(F)c1cccc(-c2nn3c(c2-c2ccc4cn[nH]c4c2)OCC3)c1` [Compound 71, 7-(1H-Indazol-6-yl)-6-(3-trifluoromethylphenyl)-2,3-dihydropyrazolo[5,1-b]oxazole], the values for the IC50 in assay [1] and in assay [2] were 852 nM and 179 nM, respectively.
As to `Cc1cccc(-c2nn3c(c2-c2ccc4ncccc4c2)CCC3)c1` [Compound 46, 6-(2-(m-Tolyl)-5,6-dihydro-4H-pyrrolo[1,2-b]pyrazol-3-yl)quinoline], the IC50 amounted to 1510 nM in assay [1] and 234 nM in assay [2].
`Cc1c(F)ccc(-c2nn3c(c2-c2ccc4nccnc4c2)CCC3)c1F` [Compound 172, 6-(2-(2,4-Difluoro-3-methylphenyl)-5,6-dihydro-4H-pyrrolo[1,2-b]pyrazol-3-yl)quinoxaline]: the concentration for half-maximal inhibition (IC50) in assay [1] was determined as 1780 nM; in assay [2], 678 nM.
For `Fc1cccc(-c2nn3c(c2-c2ccc4nccn4c2)CCC3)c1` [Compound 80, 6-(2-(3-Fluorophenyl)-5,6-dihydro-4H-pyrrolo[1,2-b]pyrazol-3-yl)imidazo[1,2-a]pyridine], in that order: 2980 nM and 760 nM.
Regarding `COc1cccc(-c2nn3c(c2-c2ccc4ncccc4c2)CCC3)c1` [Compound 48, 6-(2-(3-Methoxyphenyl)-5,6-dihydro-4H-pyrrolo[1,2-b]pyrazol-3-yl)quinoline], the IC50 came to 4460 nM in assay [1] and 610 nM in assay [2].
On the same counts, the results for `COc1cccc(-c2nn3c(c2-c2ccc4ncnn4c2)CCC3)c1` [Compound 106, 6-(2-(3-Methoxyphenyl)-5,6-dihydro-4H-pyrrolo[1,2-b]pyrazol-3-yl)-[1,2,4]triazolo[1,5-a]pyridine] are 600 nM and 159 nM.
Regarding `Cc1c(F)ccc(-c2nn3c(c2-c2ccc4[nH]ncc4c2)CCC3)c1F` [Compound 167, 5-(2-(2,4-Difluoro-3-methylphenyl)-5,6-dihydro-4H-pyrrolo[1,2-b]pyrazol-3-yl)-1H-indazole], the IC50 in assay [1] is 538 nM; in assay [2] it was 209 nM.
For `Cc1cccc(-c2nn3c(c2-c2ccc4ncnn4c2)CCC3)c1` [Compound 104, 6-(2-(m-Tolyl)-5,6-dihydro-4H-pyrrolo[1,2-b]pyrazol-3-yl)-[1,2,4]triazolo[1,5-a]pyridine], in that order: 83 nM and 26.6 nM.
For `Cc1cc(-c2nn3c(c2-c2ccc4ncccc4c2)CCC3)c(F)cc1F` [Compound 183, 6-(2-(2,4-Difluoro-5-methylphenyl)-5,6-dihydro-4H-pyrrolo[1,2-b]pyrazol-3-yl)quinoline], in that order: 1640 nM and 463 nM.
For `Cn1cnc2ccc(-c3c(-c4ccc(F)c(F)c4)nn4c3CCC4)cc21` [Compound 85, 6-(2-(3,4-Difluorophenyl)-5,6-dihydro-4H-pyrrolo[1,2-b]pyrazol-3-yl)-1-methyl-1H-benzo[d]imidazole], in that order: 251 nM and 106 nM.
As for `Fc1cccc(-c2nn3c(c2-c2ccc4[nH]ncc4c2)CCC3)c1` [Compound 77, 5-(2-(3-Fluorophenyl)-5,6-dihydro-4H-pyrrolo[1,2-b]pyrazol-3-yl)-1H-indazole], the concentration for half-maximal inhibition (IC50) in assay [1] came out at 1340 nM; in assay [2], 336 nM.
On the same counts, the results for `FC(F)(F)c1cccc(-c2nn3c(c2-c2ccc4nccn4c2)CCC3)c1` [Compound 34, 6-(2-(3-Trifluoromethylphenyl)-5,6-dihydro-4H-pyrrolo[1,2-b]pyrazol-3-yl)imidazo[1,2-a]pyridine] are 34.8 nM and 8.3 nM.
On the same counts, the results for `Fc1ccc(-c2nn3c(c2-c2ccc4cn[nH]c4c2)OCC3)cc1` [Compound 65, 6-(4-Fluorophenyl)-7-(1H-indazol-6-yl)-2,3-dihydropyrazolo[5,1-b]oxazole] are 881 nM and 143 nM.
For `Fc1ccc(Cl)cc1-c1nn2c(c1-c1ccc3ncnn3c1)CCC2` [Compound 178, 6-(2-(5-Chloro-2-fluorophenyl)-5,6-dihydro-4H-pyrrolo[1,2-b]pyrazol-3-yl)-[1,2,4]triazolo[1,5-a]pyridine], in that order: 31.1 nM and 13.2 nM.

Source of the values: US10822337B2, “TGF-β inhibitorC” (Rigel Pharmaceuticals, Inc., priority 2015, dated 2020).
